Literature values as cited in paper PMC9851200, “Multiparameter phenotypic screening for endogenous TFEB and TFE3 translocation identifies novel chemical series modulating lysosome function” (Autophagy, 2022).

Tests used:
Design in all cases: method as in original PKIS2 published data
[1] = biological target: kinases (KINOMEscan panel) (Homo sapiens, UniProt O60674); details: JAK2(JH1domain-catalytic); Published KINOMEscan; ref original PKIS2 published data; cited from earlier work
[2] = biological target: kinases (KINOMEscan panel) (Homo sapiens, UniProt P30291); details: WEE1; Published KINOMEscan; ref original PKIS2 published data; cited from earlier work
kinases (KINOMEscan panel) (Homo sapiens, UniProt P30291), sequence (P30291 whole entry): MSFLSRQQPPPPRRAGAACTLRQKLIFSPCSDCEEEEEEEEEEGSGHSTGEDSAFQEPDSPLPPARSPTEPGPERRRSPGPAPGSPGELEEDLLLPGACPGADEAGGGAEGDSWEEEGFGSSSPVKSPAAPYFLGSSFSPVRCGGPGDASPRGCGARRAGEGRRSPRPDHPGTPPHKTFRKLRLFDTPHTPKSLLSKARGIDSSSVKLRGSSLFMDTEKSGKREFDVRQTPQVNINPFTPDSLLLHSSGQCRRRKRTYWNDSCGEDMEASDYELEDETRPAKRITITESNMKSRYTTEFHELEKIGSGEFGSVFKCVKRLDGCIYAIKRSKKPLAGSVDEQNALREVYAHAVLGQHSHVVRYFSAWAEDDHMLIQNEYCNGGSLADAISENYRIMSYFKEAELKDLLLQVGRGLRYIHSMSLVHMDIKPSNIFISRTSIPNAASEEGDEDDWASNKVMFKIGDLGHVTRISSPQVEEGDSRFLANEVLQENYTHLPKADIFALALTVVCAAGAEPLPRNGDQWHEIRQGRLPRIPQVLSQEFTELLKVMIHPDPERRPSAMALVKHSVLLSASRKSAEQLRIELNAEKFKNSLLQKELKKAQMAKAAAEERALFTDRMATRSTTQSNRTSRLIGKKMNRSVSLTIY

[3] = biological target: kinases (KINOMEscan panel) (Homo sapiens, UniProt P53671); details: LIMK2; Published KINOMEscan; ref original PKIS2 published data; cited from earlier work
kinases (KINOMEscan panel) (Homo sapiens, UniProt P53671), sequence (P53671 whole entry): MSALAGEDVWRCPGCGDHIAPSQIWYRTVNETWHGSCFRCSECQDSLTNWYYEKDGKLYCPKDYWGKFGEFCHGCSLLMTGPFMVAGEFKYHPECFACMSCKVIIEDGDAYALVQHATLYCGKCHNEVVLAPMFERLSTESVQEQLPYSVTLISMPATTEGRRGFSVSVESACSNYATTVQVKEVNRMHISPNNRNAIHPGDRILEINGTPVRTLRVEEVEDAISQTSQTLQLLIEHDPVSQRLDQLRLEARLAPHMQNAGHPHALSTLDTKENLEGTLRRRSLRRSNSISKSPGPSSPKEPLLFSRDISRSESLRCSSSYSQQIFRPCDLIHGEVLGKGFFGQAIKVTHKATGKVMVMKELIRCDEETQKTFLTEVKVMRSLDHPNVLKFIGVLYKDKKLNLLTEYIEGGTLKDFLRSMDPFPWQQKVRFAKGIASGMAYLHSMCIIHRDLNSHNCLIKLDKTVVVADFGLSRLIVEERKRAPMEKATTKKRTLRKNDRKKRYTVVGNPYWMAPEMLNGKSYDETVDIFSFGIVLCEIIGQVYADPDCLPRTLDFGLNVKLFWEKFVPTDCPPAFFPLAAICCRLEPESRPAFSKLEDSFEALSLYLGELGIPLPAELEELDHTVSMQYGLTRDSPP

[4] = biological target: T1, kinases (KINOMEscan panel) (Homo sapiens, UniProt Q13873); details: kinase BMPR2; Published KINOMEscan; ref original PKIS2 published data; cited from earlier work
T1 sequence (Q13873 27-1038): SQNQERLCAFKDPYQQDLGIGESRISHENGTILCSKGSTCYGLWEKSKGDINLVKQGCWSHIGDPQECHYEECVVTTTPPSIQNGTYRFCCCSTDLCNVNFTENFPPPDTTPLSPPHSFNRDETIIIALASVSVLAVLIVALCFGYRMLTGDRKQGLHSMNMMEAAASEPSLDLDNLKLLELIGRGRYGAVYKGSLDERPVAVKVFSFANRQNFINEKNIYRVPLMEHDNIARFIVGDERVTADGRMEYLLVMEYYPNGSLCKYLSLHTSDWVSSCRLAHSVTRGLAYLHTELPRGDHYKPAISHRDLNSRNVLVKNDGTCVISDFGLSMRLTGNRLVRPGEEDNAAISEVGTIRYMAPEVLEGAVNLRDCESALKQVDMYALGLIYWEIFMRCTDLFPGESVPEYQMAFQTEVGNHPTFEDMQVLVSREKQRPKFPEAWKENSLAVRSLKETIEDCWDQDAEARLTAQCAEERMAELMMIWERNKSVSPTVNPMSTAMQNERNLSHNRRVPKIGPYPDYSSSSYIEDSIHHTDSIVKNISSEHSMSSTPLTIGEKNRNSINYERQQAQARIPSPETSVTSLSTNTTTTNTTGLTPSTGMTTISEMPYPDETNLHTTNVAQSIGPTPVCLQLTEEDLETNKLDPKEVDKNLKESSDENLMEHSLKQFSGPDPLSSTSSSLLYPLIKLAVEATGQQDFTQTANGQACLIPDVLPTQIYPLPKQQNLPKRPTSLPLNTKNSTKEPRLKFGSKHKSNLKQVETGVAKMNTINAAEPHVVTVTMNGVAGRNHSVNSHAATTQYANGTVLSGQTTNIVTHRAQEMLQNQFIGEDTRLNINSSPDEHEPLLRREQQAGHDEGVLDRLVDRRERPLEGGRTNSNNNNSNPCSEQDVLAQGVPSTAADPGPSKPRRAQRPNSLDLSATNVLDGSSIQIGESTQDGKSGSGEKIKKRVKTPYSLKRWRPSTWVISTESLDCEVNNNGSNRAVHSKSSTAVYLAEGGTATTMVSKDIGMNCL

[5] = biological target: kinases (KINOMEscan panel) (Homo sapiens, UniProt Q8N5S9); details: CAMKK1; Published KINOMEscan; ref original PKIS2 published data; cited from earlier work
kinases (KINOMEscan panel) (Homo sapiens, UniProt Q8N5S9), sequence (Q8N5S9 whole entry): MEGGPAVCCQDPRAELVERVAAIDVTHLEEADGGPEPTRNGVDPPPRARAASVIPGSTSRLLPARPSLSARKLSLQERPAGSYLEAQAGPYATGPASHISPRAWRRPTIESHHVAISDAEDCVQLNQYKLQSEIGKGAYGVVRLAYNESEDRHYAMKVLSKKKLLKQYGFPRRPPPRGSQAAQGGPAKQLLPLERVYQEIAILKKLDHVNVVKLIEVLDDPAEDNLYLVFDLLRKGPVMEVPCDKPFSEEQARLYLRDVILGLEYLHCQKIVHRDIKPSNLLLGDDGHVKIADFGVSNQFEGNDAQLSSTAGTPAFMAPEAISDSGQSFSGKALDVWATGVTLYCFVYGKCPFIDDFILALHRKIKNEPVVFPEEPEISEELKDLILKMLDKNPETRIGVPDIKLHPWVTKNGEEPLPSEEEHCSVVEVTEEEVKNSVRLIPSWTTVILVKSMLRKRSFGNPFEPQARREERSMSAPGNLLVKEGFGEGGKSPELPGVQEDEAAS

[6] = biological target: T2, kinases (KINOMEscan panel) (Homo sapiens, UniProt Q96BR1); details: kinase SGK3; Published KINOMEscan; ref original PKIS2 published data; cited from earlier work
T2 sequence (Q96BR1 1-496): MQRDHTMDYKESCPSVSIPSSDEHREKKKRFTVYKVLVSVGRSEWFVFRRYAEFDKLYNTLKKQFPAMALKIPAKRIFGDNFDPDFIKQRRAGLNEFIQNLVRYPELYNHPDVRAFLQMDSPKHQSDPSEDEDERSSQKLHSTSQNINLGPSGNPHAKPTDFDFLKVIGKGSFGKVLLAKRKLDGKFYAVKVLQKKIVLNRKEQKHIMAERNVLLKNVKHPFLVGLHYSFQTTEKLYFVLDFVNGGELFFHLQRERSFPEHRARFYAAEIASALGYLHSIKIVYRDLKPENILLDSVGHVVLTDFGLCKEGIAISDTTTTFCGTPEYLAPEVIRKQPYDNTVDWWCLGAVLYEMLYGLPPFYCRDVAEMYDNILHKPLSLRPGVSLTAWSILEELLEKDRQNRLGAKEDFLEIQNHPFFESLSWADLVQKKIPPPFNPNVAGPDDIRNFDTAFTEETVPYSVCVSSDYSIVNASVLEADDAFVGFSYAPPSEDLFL

[7] = biological target: kinases (KINOMEscan panel) (Homo sapiens, UniProt Q9Y4K4); details: kinase MAP4K5; Published KINOMEscan; ref original PKIS2 published data; cited from earlier work
kinases (KINOMEscan panel) (Homo sapiens, UniProt Q9Y4K4), sequence (Q9Y4K4 whole entry): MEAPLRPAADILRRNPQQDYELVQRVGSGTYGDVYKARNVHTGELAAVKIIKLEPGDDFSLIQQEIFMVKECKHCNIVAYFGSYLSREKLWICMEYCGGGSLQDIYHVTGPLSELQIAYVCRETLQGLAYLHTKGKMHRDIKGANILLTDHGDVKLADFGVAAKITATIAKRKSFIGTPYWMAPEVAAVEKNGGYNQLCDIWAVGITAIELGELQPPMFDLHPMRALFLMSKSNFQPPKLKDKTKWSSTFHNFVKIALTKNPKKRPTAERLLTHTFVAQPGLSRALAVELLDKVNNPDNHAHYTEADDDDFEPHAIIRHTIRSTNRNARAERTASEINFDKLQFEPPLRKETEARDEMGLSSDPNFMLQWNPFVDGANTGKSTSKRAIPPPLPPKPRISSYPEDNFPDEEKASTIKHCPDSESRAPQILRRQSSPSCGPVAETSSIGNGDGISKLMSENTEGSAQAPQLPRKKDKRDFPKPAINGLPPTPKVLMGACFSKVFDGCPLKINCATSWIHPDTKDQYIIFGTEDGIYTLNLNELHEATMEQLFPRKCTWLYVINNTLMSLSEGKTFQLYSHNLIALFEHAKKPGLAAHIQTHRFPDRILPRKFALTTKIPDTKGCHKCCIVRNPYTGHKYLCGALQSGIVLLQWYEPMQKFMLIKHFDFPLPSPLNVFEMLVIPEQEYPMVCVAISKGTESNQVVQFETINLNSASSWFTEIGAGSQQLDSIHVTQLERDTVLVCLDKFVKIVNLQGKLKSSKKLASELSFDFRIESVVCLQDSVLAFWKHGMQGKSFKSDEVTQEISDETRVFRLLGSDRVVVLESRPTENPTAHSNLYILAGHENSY

kinases (KINOMEscan panel) (Homo sapiens, UniProt O60674), sequence (O60674 whole entry): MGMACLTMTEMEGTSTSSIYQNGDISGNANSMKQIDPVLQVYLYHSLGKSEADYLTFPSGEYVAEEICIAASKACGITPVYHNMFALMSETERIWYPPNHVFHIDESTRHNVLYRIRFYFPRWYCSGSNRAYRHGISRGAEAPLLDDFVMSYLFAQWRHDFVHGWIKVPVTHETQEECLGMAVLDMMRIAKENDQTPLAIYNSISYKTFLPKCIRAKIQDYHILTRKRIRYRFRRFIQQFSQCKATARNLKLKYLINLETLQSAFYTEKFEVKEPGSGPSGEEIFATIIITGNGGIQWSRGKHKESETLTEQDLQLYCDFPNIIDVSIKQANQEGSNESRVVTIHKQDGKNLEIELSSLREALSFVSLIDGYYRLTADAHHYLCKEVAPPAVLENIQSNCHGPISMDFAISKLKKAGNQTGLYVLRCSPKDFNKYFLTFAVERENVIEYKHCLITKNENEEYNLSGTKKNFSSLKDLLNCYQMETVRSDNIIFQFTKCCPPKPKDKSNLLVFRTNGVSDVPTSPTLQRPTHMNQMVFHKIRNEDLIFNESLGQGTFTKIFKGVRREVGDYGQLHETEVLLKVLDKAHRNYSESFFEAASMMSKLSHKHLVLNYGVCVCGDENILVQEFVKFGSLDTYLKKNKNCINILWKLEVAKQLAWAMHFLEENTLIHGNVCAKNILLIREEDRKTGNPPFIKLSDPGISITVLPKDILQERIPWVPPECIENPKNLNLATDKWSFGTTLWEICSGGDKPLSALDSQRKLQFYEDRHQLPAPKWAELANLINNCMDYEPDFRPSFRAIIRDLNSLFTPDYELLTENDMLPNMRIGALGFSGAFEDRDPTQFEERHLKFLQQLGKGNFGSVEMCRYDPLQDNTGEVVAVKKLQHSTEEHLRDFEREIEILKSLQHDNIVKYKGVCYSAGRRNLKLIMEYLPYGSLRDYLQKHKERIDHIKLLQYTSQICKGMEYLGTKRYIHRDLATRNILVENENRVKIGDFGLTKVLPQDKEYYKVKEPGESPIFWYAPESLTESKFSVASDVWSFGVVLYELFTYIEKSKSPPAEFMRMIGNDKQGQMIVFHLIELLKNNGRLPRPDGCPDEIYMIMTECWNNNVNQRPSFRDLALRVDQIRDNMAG

Question: For Cc1cccc(-c2nc(Nc3ccncc3)c3ccccc3n2)n1 [NK215], which “KINOMEscan JAK2(JH1domain-catalytic)” value [1] is on record?
Answer: Its value is 0.

Question: And the “KINOMEscan WEE1” value [2]?
Answer: Its value is 23.

Question: And the “KINOMEscan LIMK2” value [3]?
Answer: Its value is 5.

Question: And the “KINOMEscan BMPR2” value [4]?
Answer: The value was 0.

Question: What about the “KINOMEscan CAMKK1” value [5] of the same compound?
Answer: Its value is 24.

Question: And the “KINOMEscan SGK3” value [6]?
Answer: The value was 0.

Question: And the “KINOMEscan MAP4K5” value [7]?
Answer: The value was 0.
